Experimental data reported in patent US20080009418A1, “Selective Inhibitors” (Alchemia LTD., priority 2004, published 2008).

Assays:
[1] = target: T1, Human melanocortin (MC5) (Homo sapiens, UniProt P33032); assay: Radioligand binding, human melanocortin MC5 membranes, FlashPlate, [125I]-NDP-αMSH; settings: compound at 10 μM, [125I]-NDP-αMSH
T1 construct: purchased Perkin Elmer Biosignal
Summary of the method: (§1)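 Cloned human receptor membranes were coated onto FlashPlate wells and incubated with radioligand and compound (added from a 0.5 mM DMSO daughter plate) for 1 hour at room temperature in the dark. Scintillation counting gave percent inhibition, with DMSO defining total and reference ligand defining non-specific binding.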

[2] = target: T2, Mouse urotensin (mUR2) (Mus musculus, UniProt Q8VIH9); assay: Radioligand binding, mouse urotensin mUR2 membranes, FlashPlate, [125I]-Urotensin II; settings: compound at 10 μM, [125I]-Urotensin II
T2 construct: purchased Perkin Elmer Biosignal
T2 sequence (Q8VIH9 1-385): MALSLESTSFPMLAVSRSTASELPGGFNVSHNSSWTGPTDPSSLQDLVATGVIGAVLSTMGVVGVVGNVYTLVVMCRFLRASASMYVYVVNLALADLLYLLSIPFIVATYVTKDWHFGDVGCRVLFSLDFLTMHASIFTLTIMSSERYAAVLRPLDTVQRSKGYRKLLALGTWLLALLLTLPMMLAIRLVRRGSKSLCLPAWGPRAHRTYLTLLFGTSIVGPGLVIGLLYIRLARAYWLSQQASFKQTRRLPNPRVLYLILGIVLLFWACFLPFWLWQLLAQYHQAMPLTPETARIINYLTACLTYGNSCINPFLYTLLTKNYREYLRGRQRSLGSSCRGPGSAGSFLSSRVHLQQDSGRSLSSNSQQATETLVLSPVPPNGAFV
Summary of the method: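 Cloned mouse urotensin (mUR2) receptor membranes from Perkin Elmer Biosignal were immobilized in FlashPlate microplates using a proprietary coating. Each well got 19.5 μl buffer, then 0.5 μl of DMSO, reference ligand, or compound. Adding 5 μl of [125I]-Urotensin II, diluted to 5× final concentration in binding buffer, started binding. Plates were sealed with TopSeal-A and incubated 1 hour at room temperature in the dark. Wells were counted for 30 seconds each on a TopCount after a 60-second delay, and percentage inhibition was calculated.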

[3] = target: T3, Human melanin-concentrating hormone (MCH1) (Homo sapiens, UniProt Q99705); assay: Radioligand binding, human melanin-concentrating hormone MCH1 membranes, FlashPlate, [125I]-S36057; settings: compound at 10 μM
T3 construct: purchased Perkin Elmer Biosignal
Summary of the method: as §1

[4] = target: T4, Human κ-Opioid (KOP) (Homo sapiens, UniProt P41145); assay: Radioligand binding, human κ-opioid (KOP) membranes, filtration, [3H]-Diprenorphine; settings: compound at 10 μM, [3H]-Diprenorphine
T4 construct: purchased Perkin Elmer Biosignal
Summary of the method: (§2)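 Membranes from cloned human receptors were incubated with compound and radioligand for 1 hour at room temperature. Bound ligand was collected on 0.3% PEI-soaked filters, washed with cold 50 mM Tris-HCl pH 7.4, and counted by scintillation. Percent inhibition was computed against DMSO totals and reference-ligand nonspecific wells.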

[5] = target: T5, Human opioid (ORL1) (Homo sapiens, UniProt P41146); assay: Radioligand binding, human opioid ORL1 membranes, FlashPlate, [125I]-Nociceptin; settings: compound at 10 μM, [125I]-Nociceptin
T5 construct: purchased Perkin Elmer Biosignal
Summary of the method: as §1

[6] = target: T6, Human neurokinin (NK1) (Homo sapiens, UniProt P25103); assay: Radioligand binding, human neurokinin NK1 membranes, filtration, [125I]-Substance P; settings: compound at 10 μM, [125I]-Substance P
T6 construct: purchased Perkin Elmer Biosignal
Summary of the method: as §2

[7] = target: T7, Human μ-opioid (MOP) (Homo sapiens, UniProt P35372); assay: Radioligand binding, human μ-opioid (MOP) membranes, FlashPlate, [3H]-Naloxone; settings: compound at 10 μM, [3H]-Naloxone
T7 construct: purchased Perkin Elmer Biosignal
Summary of the method: as §1

[8] = target: T8, Human δ-opioid (DOP) (Homo sapiens, UniProt P41143); assay: Radioligand binding, human δ-opioid (DOP) membranes, FlashPlate, [3H]-Bremazocine; settings: compound at 10 μM, [3H]-Bremazocine
T8 construct: purchased Perkin Elmer Biosignal
Summary of the method: as §1

[9] = target: T9, Human neuropeptide Y (NPY-Y1) (Homo sapiens, UniProt P25929); assay: Radioligand binding, human neuropeptide Y NPY-Y1 membranes, FlashPlate, [125I]-PYY; settings: compound at 10 μM, [125I]-PYY
T9 construct: purchased Perkin Elmer Biosignal
T9 sequence (P25929 1-384): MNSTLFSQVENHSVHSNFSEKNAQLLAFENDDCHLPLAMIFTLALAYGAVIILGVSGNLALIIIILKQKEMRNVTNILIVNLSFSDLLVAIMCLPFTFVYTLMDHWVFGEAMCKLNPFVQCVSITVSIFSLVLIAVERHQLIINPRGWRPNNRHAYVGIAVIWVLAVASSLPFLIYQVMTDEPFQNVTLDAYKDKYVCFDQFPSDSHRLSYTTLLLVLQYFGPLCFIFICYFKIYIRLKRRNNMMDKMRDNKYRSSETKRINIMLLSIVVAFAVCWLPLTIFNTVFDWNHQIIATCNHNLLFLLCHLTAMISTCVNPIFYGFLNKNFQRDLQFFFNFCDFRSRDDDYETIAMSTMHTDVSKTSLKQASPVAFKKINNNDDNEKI
Summary of the method: as §1

[10] = target: T10, Human Melanocortin (MC4) (Homo sapiens, UniProt P32245); assay: Radioligand binding, human melanocortin MC4 membranes, FlashPlate, [125I]-NDP-αMSH; settings: compound at 10 μM, [125I]-NDP-αMSH
T10 construct: purchased Perkin Elmer Biosignal
Summary of the method: as §1

[11] = target: T11, Human Melanocortin (MC3) (Homo sapiens, UniProt P41968); assay: Radioligand binding, human melanocortin MC3 membranes, FlashPlate, [125I]-NDP-αMSH; settings: compound at 10 μM, [125I]-NDP-αMSH
T11 construct: purchased Perkin Elmer Biosignal
Summary of the method: as §1

T3 sequence (Q99705 whole entry): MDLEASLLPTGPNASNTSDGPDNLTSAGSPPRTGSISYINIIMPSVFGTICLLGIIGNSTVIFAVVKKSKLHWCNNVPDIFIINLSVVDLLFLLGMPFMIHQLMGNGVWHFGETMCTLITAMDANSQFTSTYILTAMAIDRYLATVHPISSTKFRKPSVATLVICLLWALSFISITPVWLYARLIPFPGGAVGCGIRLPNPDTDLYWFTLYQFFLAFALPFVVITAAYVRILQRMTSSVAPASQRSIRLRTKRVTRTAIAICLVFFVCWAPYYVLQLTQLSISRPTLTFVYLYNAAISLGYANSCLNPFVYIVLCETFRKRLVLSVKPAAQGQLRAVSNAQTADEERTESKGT
T5 sequence (P41146 whole entry): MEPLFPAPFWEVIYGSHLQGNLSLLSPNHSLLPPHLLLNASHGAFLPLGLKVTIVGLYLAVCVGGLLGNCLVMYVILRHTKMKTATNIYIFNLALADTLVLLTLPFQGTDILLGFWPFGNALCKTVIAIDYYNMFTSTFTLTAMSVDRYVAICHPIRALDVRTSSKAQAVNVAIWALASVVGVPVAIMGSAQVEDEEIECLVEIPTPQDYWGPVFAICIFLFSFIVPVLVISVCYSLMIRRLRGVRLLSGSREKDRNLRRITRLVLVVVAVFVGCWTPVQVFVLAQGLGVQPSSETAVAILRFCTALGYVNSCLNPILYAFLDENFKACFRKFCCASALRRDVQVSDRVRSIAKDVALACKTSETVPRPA
T11 sequence (P41968 whole entry): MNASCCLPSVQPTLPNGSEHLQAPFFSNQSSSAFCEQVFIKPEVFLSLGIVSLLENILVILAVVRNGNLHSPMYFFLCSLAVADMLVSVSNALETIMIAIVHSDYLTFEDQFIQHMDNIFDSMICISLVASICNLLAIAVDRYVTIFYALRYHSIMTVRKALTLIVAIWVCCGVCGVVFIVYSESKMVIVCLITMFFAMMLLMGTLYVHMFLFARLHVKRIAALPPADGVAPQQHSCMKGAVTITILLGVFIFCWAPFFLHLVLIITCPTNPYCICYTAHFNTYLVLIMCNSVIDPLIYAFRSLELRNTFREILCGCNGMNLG
T7 sequence (P35372 whole entry): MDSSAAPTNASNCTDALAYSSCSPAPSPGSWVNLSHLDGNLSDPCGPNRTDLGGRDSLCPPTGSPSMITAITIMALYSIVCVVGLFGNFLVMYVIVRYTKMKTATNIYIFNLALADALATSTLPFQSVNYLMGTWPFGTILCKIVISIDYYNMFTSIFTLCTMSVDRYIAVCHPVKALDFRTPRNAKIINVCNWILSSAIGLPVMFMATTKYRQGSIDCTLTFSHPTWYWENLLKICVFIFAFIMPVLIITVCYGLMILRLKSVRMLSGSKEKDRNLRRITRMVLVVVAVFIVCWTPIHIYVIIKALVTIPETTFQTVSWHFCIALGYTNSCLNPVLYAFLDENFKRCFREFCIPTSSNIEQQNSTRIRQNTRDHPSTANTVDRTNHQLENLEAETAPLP
T4 sequence (P41145 whole entry): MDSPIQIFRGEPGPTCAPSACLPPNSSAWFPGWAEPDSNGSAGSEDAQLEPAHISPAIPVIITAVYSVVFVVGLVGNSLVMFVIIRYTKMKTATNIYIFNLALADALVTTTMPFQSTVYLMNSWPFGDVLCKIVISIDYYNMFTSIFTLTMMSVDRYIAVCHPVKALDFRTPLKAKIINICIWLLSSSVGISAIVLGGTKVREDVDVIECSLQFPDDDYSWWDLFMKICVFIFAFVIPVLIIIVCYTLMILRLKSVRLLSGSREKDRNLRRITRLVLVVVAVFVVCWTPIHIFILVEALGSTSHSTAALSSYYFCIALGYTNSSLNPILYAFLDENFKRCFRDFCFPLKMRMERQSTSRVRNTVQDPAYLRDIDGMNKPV
T6 sequence (P25103 whole entry): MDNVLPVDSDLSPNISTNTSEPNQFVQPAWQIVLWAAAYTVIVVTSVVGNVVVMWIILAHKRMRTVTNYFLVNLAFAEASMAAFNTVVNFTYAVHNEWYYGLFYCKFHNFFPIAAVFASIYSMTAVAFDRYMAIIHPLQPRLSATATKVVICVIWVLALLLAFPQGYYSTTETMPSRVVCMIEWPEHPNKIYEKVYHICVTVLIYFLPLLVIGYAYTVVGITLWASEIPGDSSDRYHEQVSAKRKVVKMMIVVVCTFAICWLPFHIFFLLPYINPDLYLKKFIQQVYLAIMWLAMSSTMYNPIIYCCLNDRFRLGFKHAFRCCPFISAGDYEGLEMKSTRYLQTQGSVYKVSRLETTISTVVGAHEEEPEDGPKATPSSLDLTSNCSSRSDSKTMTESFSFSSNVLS
T10 sequence (P32245 whole entry): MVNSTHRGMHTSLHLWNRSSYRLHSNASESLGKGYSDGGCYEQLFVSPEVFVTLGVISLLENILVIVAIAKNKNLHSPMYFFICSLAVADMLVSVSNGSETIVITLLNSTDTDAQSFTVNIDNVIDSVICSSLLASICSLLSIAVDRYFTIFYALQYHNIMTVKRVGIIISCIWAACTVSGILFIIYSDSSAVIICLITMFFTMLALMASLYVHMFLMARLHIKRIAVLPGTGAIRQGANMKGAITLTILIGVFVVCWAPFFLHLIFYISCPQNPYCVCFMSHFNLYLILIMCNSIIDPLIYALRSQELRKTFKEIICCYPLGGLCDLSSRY
T8 sequence (P41143 whole entry): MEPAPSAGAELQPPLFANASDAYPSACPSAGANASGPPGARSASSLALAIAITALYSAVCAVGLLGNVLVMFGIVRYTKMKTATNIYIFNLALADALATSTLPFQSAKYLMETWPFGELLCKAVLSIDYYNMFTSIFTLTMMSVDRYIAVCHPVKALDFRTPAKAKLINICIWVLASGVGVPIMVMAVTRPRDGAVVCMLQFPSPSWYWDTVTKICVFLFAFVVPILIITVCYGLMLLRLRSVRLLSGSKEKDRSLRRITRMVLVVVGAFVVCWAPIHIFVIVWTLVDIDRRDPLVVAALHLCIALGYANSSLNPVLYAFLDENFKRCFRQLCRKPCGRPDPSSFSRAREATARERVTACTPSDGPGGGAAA
T1 sequence (P33032 whole entry): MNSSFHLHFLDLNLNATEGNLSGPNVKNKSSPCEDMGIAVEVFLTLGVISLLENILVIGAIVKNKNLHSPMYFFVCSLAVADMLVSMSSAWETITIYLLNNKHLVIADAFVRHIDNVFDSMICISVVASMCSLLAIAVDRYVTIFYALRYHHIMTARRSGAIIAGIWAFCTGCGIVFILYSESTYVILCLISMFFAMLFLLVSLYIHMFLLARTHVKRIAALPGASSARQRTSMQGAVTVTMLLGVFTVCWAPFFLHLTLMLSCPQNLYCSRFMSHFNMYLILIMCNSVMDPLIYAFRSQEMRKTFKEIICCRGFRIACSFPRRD

Structure (SMILES): N=C(N)NCC(=O)NC1C(OCc2ccc(Cl)cc2)OC(COCc2ccc(Cl)cc2)C(O)C1OCc1ccc2ccccc2c1 (stereo not shown) [compound 422]
- A5: inhibition of radioligand binding ([1]; human MC5 membranes): + (“+” indicates greater than 50% inhibition at 10 μM)
- A11: inhibition of radioligand binding ([2]; mouse mUR2 membranes): − (“−” indicates less than 50% inhibition at 10 μM)
- A6: inhibition of radioligand binding ([3]; [125I]-S36057, human MCH1 membranes): + (“+” indicates greater than 50% inhibition at 10 μM)
- A2: inhibition of radioligand binding ([4]; human KOP membranes): − (“−” indicates less than 50% inhibition at 10 μM)
- A10: inhibition of radioligand binding ([5]; human ORL1 membranes): + (“+” indicates greater than 50% inhibition at 10 μM)
- A8: inhibition of radioligand binding ([6]; human NK1 membranes): + (“+” indicates greater than 50% inhibition at 10 μM)
- A7: inhibition of radioligand binding ([7]; human MOP membranes): − (“−” indicates less than 50% inhibition at 10 μM)
- A1: inhibition of radioligand binding ([8]; human DOP membranes): − (“−” indicates less than 50% inhibition at 10 μM)
- A9: inhibition of radioligand binding ([9]; human NPY-Y1 membranes): − (“−” indicates less than 50% inhibition at 10 μM)
- A4: inhibition of radioligand binding ([10]; human MC4 membranes): + (“+” indicates greater than 50% inhibition at 10 μM)
- A3: inhibition of radioligand binding ([11]; human MC3 membranes): + (“+” indicates greater than 50% inhibition at 10 μM)

Structure (SMILES): CSC1O[C@H](COCc2ccc(-c3ccccc3)cc2)[C@@H](O)[C@@H](OCc2ccc(Cl)cc2)[C@H]1NC(=O)CCCNC(=N)N (stereo partly shown) [compound 279]
- A5: inhibition of radioligand binding ([1]; FlashPlate): + (“+” indicates greater than 50% inhibition at 10 μM)
- A11: inhibition of radioligand binding ([2]; FlashPlate): − (“−” indicates less than 50% inhibition at 10 μM)
- A6: inhibition of radioligand binding ([3]; [125I]-S36057, FlashPlate): − (“−” indicates less than 50% inhibition at 10 μM)
- A2: inhibition of radioligand binding ([4]; filtration): − (“−” indicates less than 50% inhibition at 10 μM)
- A10: inhibition of radioligand binding ([5]; FlashPlate): − (“−” indicates less than 50% inhibition at 10 μM)
- A8: inhibition of radioligand binding ([6]; filtration): + (“+” indicates greater than 50% inhibition at 10 μM)
- A7: inhibition of radioligand binding ([7]; FlashPlate): − (“−” indicates less than 50% inhibition at 10 μM)
- A1: inhibition of radioligand binding ([8]; FlashPlate): − (“−” indicates less than 50% inhibition at 10 μM)
- A9: inhibition of radioligand binding ([9]; FlashPlate): − (“−” indicates less than 50% inhibition at 10 μM)
- A4: inhibition of radioligand binding ([10]; FlashPlate): − (“−” indicates less than 50% inhibition at 10 μM)
- A3: inhibition of radioligand binding ([11]; FlashPlate): − (“−” indicates less than 50% inhibition at 10 μM)

Structure (SMILES): COC[C@H]1OC(OCCc2ccccc2)[C@H](NC(=O)CCCN)[C@@H](OCc2ccc3ccccc3c2)[C@@H]1O (single isomer, unassigned) [compound 345]
- A5: inhibition of radioligand binding, human melanocortin (MC5) ([1]; 10 µM): − (“−” indicates less than 50% inhibition at 10 μM)
- A11: inhibition of radioligand binding, mouse urotensin (mUR2) ([2]; 10 µM): − (“−” indicates less than 50% inhibition at 10 μM)
- A6: inhibition of radioligand binding, human melanin-concentrating hormone (MCH1) ([3]; [125I]-S36057, 10 µM): − (“−” indicates less than 50% inhibition at 10 μM)
- A2: inhibition of radioligand binding, human κ-opioid (KOP) ([4]; 10 µM): − (“−” indicates less than 50% inhibition at 10 μM)
- A10: inhibition of radioligand binding, human opioid (ORL1) ([5]; 10 µM): − (“−” indicates less than 50% inhibition at 10 μM)
- A8: inhibition of radioligand binding, human neurokinin (NK1) [6]: + (“+” indicates greater than 50% inhibition at 10 μM)
- A7: inhibition of radioligand binding, human μ-opioid (MOP) ([7]; 10 µM): − (“−” indicates less than 50% inhibition at 10 μM)
- A1: inhibition of radioligand binding, human δ-opioid (DOP) [8]: − (“−” indicates less than 50% inhibition at 10 μM)
- A9: inhibition of radioligand binding, human neuropeptide Y (NPY-Y1) [9]: − (“−” indicates less than 50% inhibition at 10 μM)
- A4: inhibition of radioligand binding, human melanocortin (MC4) ([10]; 10 µM): − (“−” indicates less than 50% inhibition at 10 μM)
- A3: inhibition of radioligand binding, human melanocortin (MC3) ([11]; 10 µM): − (“−” indicates less than 50% inhibition at 10 μM)

Structure (SMILES): CO[C@H]1[C@H](O)[C@@H](COCc2ccc(Cl)cc2)OC(OCc2ccc(Cl)cc2)[C@@H]1NC(=O)CCCN (stereo partly shown) [compound 107]
- A5 radioligand binding, percentage inhibition [1]: + (“+” indicates greater than 50% inhibition at 10 μM)
- A11 radioligand binding, percentage inhibition [2]: − (“−” indicates less than 50% inhibition at 10 μM)
- A6 radioligand binding, percentage inhibition ([3]; [125I]-S36057): − (“−” indicates less than 50% inhibition at 10 μM)
- A2 radioligand binding, percentage inhibition [4]: − (“−” indicates less than 50% inhibition at 10 μM)
- A10 radioligand binding, percentage inhibition [5]: − (“−” indicates less than 50% inhibition at 10 μM)
- A8 radioligand binding, percentage inhibition [6]: + (“+” indicates greater than 50% inhibition at 10 μM)
- A7 radioligand binding, percentage inhibition [7]: − (“−” indicates less than 50% inhibition at 10 μM)
- A1 radioligand binding, percentage inhibition [8]: − (“−” indicates less than 50% inhibition at 10 μM)
- A9 radioligand binding, percentage inhibition [9]: − (“−” indicates less than 50% inhibition at 10 μM)
- A4 radioligand binding, percentage inhibition [10]: + (“+” indicates greater than 50% inhibition at 10 μM)
- A3 radioligand binding, percentage inhibition [11]: − (“−” indicates less than 50% inhibition at 10 μM)

Structure (SMILES): CSC1OC(COCc2ccccc2)C(O)C(OCc2ccccc2)C1NC(=O)CCCNC(=N)N (stereo not shown) [compound 252]
- A5: inhibition of radioligand binding ([1]; FlashPlate): − (“−” indicates less than 50% inhibition at 10 μM)
- A11: inhibition of radioligand binding ([2]; FlashPlate): − (“−” indicates less than 50% inhibition at 10 μM)
- A6: inhibition of radioligand binding ([3]; [125I]-S36057, FlashPlate): − (“−” indicates less than 50% inhibition at 10 μM)
- A2: inhibition of radioligand binding ([4]; filtration): − (“−” indicates less than 50% inhibition at 10 μM)
- A10: inhibition of radioligand binding ([5]; FlashPlate): − (“−” indicates less than 50% inhibition at 10 μM)
- A8: inhibition of radioligand binding ([6]; filtration): + (“+” indicates greater than 50% inhibition at 10 μM)
- A7: inhibition of radioligand binding ([7]; FlashPlate): − (“−” indicates less than 50% inhibition at 10 μM)
- A1: inhibition of radioligand binding ([8]; FlashPlate): − (“−” indicates less than 50% inhibition at 10 μM)
- A9: inhibition of radioligand binding ([9]; FlashPlate): − (“−” indicates less than 50% inhibition at 10 μM)
- A4: inhibition of radioligand binding ([10]; FlashPlate): − (“−” indicates less than 50% inhibition at 10 μM)
- A3: inhibition of radioligand binding ([11]; FlashPlate): − (“−” indicates less than 50% inhibition at 10 μM)
